For assay [1], the system named is high kalium concentration constricted rabbit aorta. As to the kind of experiment: Relaxing effects on vascular smooth muscle constricted by high kalium concentration in vitro. Particulars: Oryctolagus cuniculus, relaxation of rabbit aorta constricted by high kalium solution (K+ 60 mmol/L); mean±SEM, n=5. The procedure:
Adrenaline hydrochloride (AD) (10^−5 mol/L) was added into a bath tube to induce constriction, when maximal constriction was achieved, the sample was completely flushed, K-H solution was changed for every 20 min. Contents in the tube was balanced for 60 min, when baseline recovered to be stable, K-H solution in the bath tube was replaced with high kalium concentration solution to induce constriction. When the later maximal constriction response was basically consistent with the former one, the prepared compound solutions were subsequently added, including compound II-1 to II-60 solutions (1×10^−8-1×10^−3 mol/L), compound II-84 to II-123 solutions (1×10^−10-1×10^−2 mol/L) and compound II-124 to II-157 solutions (1×10^−10-1×10^−3 mol/L), to record the waveforms. Relaxing percentage of the compound was used as Y axis, maximal relaxation response was 100%, negative logarithm of different concentration was used as X axis, to draw dose effect curve (expressed in mean±SEM ( ? ), n=5). Compounds II-2 and II-3 had the most obvious relaxing effects (FIG. 2 and FIG. 9).

Assay [2] deals with AD constricted rabbit aorta. Put plainly: Relaxing effects on vascular smooth muscle constricted by adrenaline hydrochloride (AD) in vitro. Particulars: Oryctolagus cuniculus; relaxation of rabbit aorta constricted by adrenaline (10^−5 mol/L); mean±SEM, n=5. The protocol: Adrenaline hydrochloride (AD) (10^−5 mol/L) was added into a bath tube to induce constriction, when maximal constriction was achieved, the sample was completely flushed, K-H solution was changed for every 20 min. Contents in the tube was balanced for 60 min, when baseline recovered to be stable, the […] was added at the same concentration to induce constriction. When the later maximal constriction response was basically consistent with the former one, the prepared compound solutions were subsequently added, including compound II-1 to II-60 solutions (1×10^−8-1×10^−3 mol/L), compound II-84 to II-123 solutions (1×10^−10-1×10^−2 mol/L) and compound II-124 to II-157 solutions (1×10^−10˜1×10^−3 mol/L), to record the waveforms. Relaxing percentage of the compound was used as Y axis, maximal relaxation response was 100%, negative logarithm of different concentration was used as X axis, to draw dose effect curve (expressed in mean±SEM ( ? ), n=5). Compounds II-2 and II-3 had the most obvious relaxing effects (FIG. 1 and FIG. 8).

The EC50 is the concentration giving half of the maximal effect. Read a high EC50 as weaker potency. As to `FC(F)(F)c1cccc(N2CCN(CCCCn3ccc4ccccc43)CC2)c1` [II-57, 1-(4-(4-(3-trifluoromethylphenyl)piperazine-1-yl)butyl)-1H-indole], the EC50 in assay [1] was 263 µM; in assay [2] it was 61.7 µM.
For the compound `Fc1ccc2c(N3CCN(CCCCn4cnc5ccccc54)CC3)coc2c1` [II-21, 1-(4-(4-(3-(6-fluorobenzofuranyl))piperazine-1-yl)butyl)-1H-benzimidazole], the EC50 in assay [1] was 178 µM; in assay [2], 89.1 µM.
Consider `Clc1cccc(N2CCN(CCCOn3cnc4ccccc43)CC2)c1` [II-24, 1-(4-(4-(3-chlorphenyl)piperazine-1-yl)propoxyl)-1H-benzimidazole], for which the 50% effective concentration (EC50) in assay [1] and in assay [2] was 30.2 µM throughout.
As to `Fc1ccc2c(N3CCN(CCCCn4cnc5ccccc54)CC3)nsc2c1` [II-19, 1-(4-(4-(3-(6-fluorobenzisothiazolyl))piperazine-1-yl)butyl)-1H-benzimidazole], the figures for the EC50 in assay [1] and in assay [2] were 87.1 µM and 66.1 µM, respectively.
`c1ccc2c(c1)ncn2CCCCN1CCN(C2CCCCC2)CC1` [II-15, 1-(4-(4-(1-cyclohexyl)piperazine-1-yl)butyl)-1H-benzimidazole]: the concentration giving a half-maximal response (EC50) in assay [1] is 30.2 µM; in assay [2] it was 33.9 µM.
For `Cc1ccc(N2CCN(CCCCn3cnc4ccccc43)CC2)cc1` [II-11, 1-(4-(4-(4-methylphenyl)piperazine-1-yl)butyl)-1H-benzimidazole], the EC50 in assay [1] was 141 µM; in assay [2], 89.1 µM.
In the case of `Fc1ccc2c(N3CCN(CCCOn4cnc5ccccc54)CC3)noc2c1` [II-22, 1-(3-(4-(3-(6-fluorobenzisoxazolyl))piperazine-1-yl)propoxyl)-1H-benzimidazole], the EC50 was 22.9 µM in assay [1] and 28.2 µM in assay [2].
Taken in the same sequence, the figures for `FC(F)(F)c1cccc(N2CCN(CCCOn3cnc4ccccc43)CC2)c1` [II-23, 1-(4-(4-(3-trifluoromethylphenyl)piperazine-1-yl)propoxyl)-1H-benzimidazole] were 38 µM and 19.1 µM.
Taken in the same sequence, the figures for `Fc1ccc2c(N3CCN(CCCn4nnc5ccccc54)CC3)noc2c1` [II-37, 6-fluoro-3-(4-(3-(1H-benzotriazole-1-yl)propyl)piperazine-1-yl)benzisoxazole] were 3.72 µM and 2.75 µM.
Taken in the same sequence, the figures for `COC(=O)c1ccc2ncn(CCCCN3CCN(c4cccc(C(F)(F)F)c4)CC3)c2c1` [II-27, 6-methoxycarbonyl-1-(4-(4-(3-trifluoromethylphenyl)piperazine-1-yl)butyl)-1H-benzimidazole] were 87.1 µM and 49 µM.
As to `Fc1ccc2c(N3CCN(CCCCn4nnc5ccccc54)CC3)nsc2c1` [II-49, 1-(4-(4-(3-(6-fluorobenzisothiazolyl))piperazine-1-yl)butyl)-1H-benzotriazole], the results for the half-maximal effective concentration (EC50) in assay [1] and in assay [2] were 141 µM and 89.1 µM, respectively.
In the same order, the values of `c1coc(N2CCN(CCCCn3cnc4ccccc43)CC2)c1` [II-12, 1-(4-(4-(2-furyl)piperazine-1-yl)butyl)-1H-benzimidazole] are 70.8 µM and 44.7 µM.
For the compound `c1ccc2c(N3CCN(CCCCn4cnc5ccccc54)CC3)cccc2c1` [II-16, 1-(4-(4-(1-naphthyl)piperazine-1-yl)butyl)-1H-benzimidazole], the concentration giving a half-maximal response (EC50) in assay [1] was 64.6 µM; in assay [2], 51.3 µM.
Taken in the same sequence, the figures for `COc1cccc(N2CCN(CCCCn3nnc4ccccc43)CC2)c1` [II-40, 1-(4-(4-(3-methoxyphenyl)piperazine-1-yl)butyl)-1H-benzotriazole] were 5.13 µM and 4.47 µM.
Taken in the same sequence, the figures for `COc1ccccc1N1CCN(CCCCn2cnc3ccccc32)CC1` [II-4, 1-(4-(4-(2-methoxyphenyl)piperazine-1-yl)butyl)-1H-benzimidazole] were 16.2 µM and 11 µM.
In the same order, the values of `Clc1cccc(N2CCN(CCCCn3nnc4ccccc43)CC2)c1` [II-29, 1-(4-(4-(3-chlorophenyl)piperazine-1-yl)butyl)-1H-benzotriazole] are 2.29 µM and 0.977 µM.
For the compound `N#Cc1ccc2nnn(CCCCN3CCN(c4cccc(C(F)(F)F)c4)CC3)c2c1` [II-55, 6-cyano-1-(4-(4-(3-trifluoromethylphenyl)piperazine-1-yl)butyl)-1H-benzotriazole], the concentration for a half-maximal effect (EC50) was 195 µM in assay [1] and 97.7 µM in assay [2].
Taken in the same sequence, the figures for `c1ccc2c(c1)ncn2CCCCN1CCN(c2ccncc2)CC1` [II-13, 1-(4-(4-(4-pyridyl)piperazine-1-yl)butyl)-1H-benzimidazole] were 30.2 µM and 38.9 µM.
Taken in the same sequence, the figures for `N#Cc1ccc2nnn(CCCCN3CCC(c4noc5cc(F)ccc45)CC3)c2c1` [II-145, N-(4-(6-cyanobenzotriazolyl)butyl)-4-(3-(6-fluorobenzisoxazolyl))piperidine] were 295 µM and 2.95 µM.
Turning to `Fc1ccc2c(N3CCN(CCCn4nnc5ccccc54)CC3)coc2c1` [II-51, 1-(3-(4-(3-(6-fluorobenzofuranyl))piperazine-1-yl)propyl)-1H-benzotriazole], the figures for the concentration giving a half-maximal response (EC50) in assay [1] and in assay [2] were 34.7 µM and 30.2 µM, respectively.
In the case of `Fc1ccc2c(N3CCN(CCCCn4nnc5ccccc54)CC3)noc2c1` [II-36, 6-fluoro-3-(4-(4-(1H-benzotriazole-1-yl)butyl)piperazine-1-yl)benzisoxazole], the EC50 in assay [1] and in assay [2] was 4.9 µM throughout.
Turning to `N#Cc1cccc(N2CCN(CCCCn3nnc4ccccc43)CC2)c1` [II-41, 1-(4-(4-(3-cyanophenyl)piperazine-1-yl)butyl)-1H-benzotriazole], the EC50 is 24.5 µM in assay [1] and 30.9 µM in assay [2].
On to `c1ccc2c(c1)nnn2CCCCN1CCN(C2CCCCC2)CC1` [II-46, 1-(4-(4-cyclohexylpiperazine-1-yl)butyl)-1H-benzotriazole], for which the concentration giving a half-maximal response (EC50) in assay [1] is 120 µM; in assay [2], 55 µM.
Regarding `c1coc(N2CCN(CCCCn3nnc4ccccc43)CC2)c1` [II-43, 1-(4-(4-(2-furyl)piperazine-1-yl)butyl)-1H-benzotriazole], the concentration giving a half-maximal response (EC50) in assay [1] is 141 µM; in assay [2] it was 35.5 µM.
Regarding `COC(=O)c1ccc2nnn(CCCCN3CCN(c4cccc(C(F)(F)F)c4)CC3)c2c1` [II-56, 6-methoxycarbonyl-1-(4-(4-(3-trifluoromethylphenyl)piperazine-1-yl)butyl)-1H-benzotriazole], the 50% effective concentration (EC50) is 309 µM in assay [1] and 55 µM in assay [2].
Taken in the same sequence, the figures for `c1cnc(N2CCN(CCCCn3cnc4ccccc43)CC2)nc1` [II-14, 1-(4-(4-(2-pyrimidinyl)piperazine-1-yl)butyl)-1H-benzimidazole] were 89.1 µM and 60.3 µM.
As for `Cc1nc2ccccc2n1CCCCN1CCN(c2cccc(C(F)(F)F)c2)CC1` [II-5, 2-methyl-1-(4-(4-(3-trifluoromethylphenyl)piperazine-1-yl)butyl)-1H-benzimidazole], the results for the EC50 in assay [1] and in assay [2] were 29.5 µM and 16.6 µM, respectively.
In the same order, the values of `c1ccc2c(N3CCN(CCCCn4nnc5ccccc54)CC3)cccc2c1` [II-47, 1-(4-(4-(1-naphthyl)piperazine-1-yl)butyl)-1H-benzotriazole] are 288 µM and 132 µM.
As for `Fc1ccc2c(C3CCN(CCn4nnc5ccccc54)CC3)noc2c1` [II-143, N-(2-(1-benzotriazolyl)ethyl)-4-(3-(6-fluorobenzisoxazolyl))piperidine], the 50% effective concentration (EC50) in assay [1] is 120 µM; in assay [2], 1.2 µM.
Taken in the same sequence, the figures for `FC(F)(F)c1cccc(N2CCN(CCCn3ncc4ccccc43)CC2)c1` [II-59, 1-(3-(4-(3-trifluoromethylphenyl)piperazine-1-yl)propyl)-1H-benzopyrazole] were 61.7 µM and 29.5 µM.
On to `c1ccc2c(c1)nnn2CCCCN1CCN(c2nsc3ccccc23)CC1` [II-34, 3-(4-(4-(1H-benzotriazole-1-yl)butyl)piperazine-1-yl)benzisothiazole], for which the figures for the EC50 in assay [1] and in assay [2] were 17 µM and 0.00851 µM, respectively.
`Fc1cccc(N2CCN(CCCn3cnc4ccccc43)CC2)c1` [II-8, 1-(3-(4-(3-fluorophenyl)piperazine-1-yl)propyl)-1H-benzimidazole]: the half-maximal effective concentration (EC50) in assay [1] was 38.9 µM; in assay [2], 19.5 µM.
Taken in the same sequence, the figures for `COc1ccc2nnn(CCCN3CCC(c4nsc5cc(F)ccc45)CC3)c2c1` [II-149, N-(3-(6-methoxylbenzotriazolyl)propyl)-4-(3-(6-fluorobenzisothiazolyl))piperidine] were 490 µM and 97.7 µM.
